Measured values: US20240173363A1, “MICROBIOME COMPOSITION OF HALOPHILIC BACILLUS VELEZENSIS KMU01 STRAIN FERMENTED CULTURE SUPERNATANT WITH ANTI-OBESITY EFFECT” (KOOKMINBIO, CORP., priority 2022, published 2024)

Tested on: C57BL/6J mice
Assay: Biochemical analysis of blood (plasma)
Type: in vivo
Conditions: HFD mice
Description: When brought in, the animal was inspected and weighed. […] Xenical was used as a positive control. […] Blood glucose, AST, ALT, and BUN were measured using a chemical analyzer (Fuji DRI-CHEM 3500i, Fuji Photo Film, Ltd., Tokyo, Japan), total cholesterol and high density lipoprotein (HDL)-cholesterol (hereinafter referred to as HDL-C) were measured using a LabAssay™ Cholesterol kit (Wako, Osaka, Japan), and a low-density lipoprotein (LDL)-cholesterol (hereinafter referred to as LDL-C) was calculated using the following Equation 2. In addition, TG was analyzed using TG assay kits (Abcam, Cambridge, MA), respectively. LDL-C=Total cholesterol−{(HDL-C)+(TG/5)} [EQUATION 2]

With `CCCCCCCCCCC[C@@H](C[C@@H]1OC(=O)[C@H]1CCCCCC)OC(=O)[C@H](CC(C)C)NC=O` [Xen] the “blood TG compared to the high-fat diet group” value (Xenical 50 mg/kg/day, 13 weeks, p<0.05) was “significantly reduced” and the LDL-C (plasma, 13 weeks oral, calculated by Equation 2, mean ± SD) was 31.55 ± 17.44 mg/dL.
